The first test has as its target T1, P2X7 receptor (Homo sapiens, UniProt Q99572).
T1 construct: host or cells: THP-1 cells differentiated with LPS and IFN-γ
T1 sequence (Q99572 1-595): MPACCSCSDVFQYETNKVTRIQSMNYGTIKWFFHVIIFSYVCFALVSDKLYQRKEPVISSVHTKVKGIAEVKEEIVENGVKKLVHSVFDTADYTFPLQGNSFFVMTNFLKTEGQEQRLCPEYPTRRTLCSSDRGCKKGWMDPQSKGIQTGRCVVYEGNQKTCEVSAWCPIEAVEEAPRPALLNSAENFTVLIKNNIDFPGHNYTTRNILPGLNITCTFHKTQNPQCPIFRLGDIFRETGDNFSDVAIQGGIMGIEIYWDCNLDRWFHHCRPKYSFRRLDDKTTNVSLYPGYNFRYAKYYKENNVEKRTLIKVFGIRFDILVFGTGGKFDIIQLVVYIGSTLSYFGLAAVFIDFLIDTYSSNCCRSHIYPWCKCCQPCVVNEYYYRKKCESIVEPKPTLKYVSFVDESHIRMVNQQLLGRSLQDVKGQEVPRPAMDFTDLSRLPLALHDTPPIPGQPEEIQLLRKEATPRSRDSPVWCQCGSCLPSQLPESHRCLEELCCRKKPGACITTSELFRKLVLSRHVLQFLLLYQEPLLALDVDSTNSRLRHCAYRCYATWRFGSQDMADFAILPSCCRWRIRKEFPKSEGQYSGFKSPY
The test can be described thus: Alternate method for IL-1β release assay (differentiated THP-1 cells, BzATP-stimulated, ELISA). The format is cell-based. The settings on record: P2X7, read-out: IL-1β % inhib @ 0.3 μM. The method in brief: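 After 16 h differentiation with 100 ng/mL LPS and 100 ng/mL IFN-γ plus a further 2 h LPS priming, THP-1 cells were pretreated 30 min with compound, then stimulated with 250 uM BzATP (final) for 45 min. Supernatant IL-1β measured by ELISA; percent inhibition from background-adjusted levels versus untreated cells.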
Background: An ELISA detects its analyte on a solid surface through an enzyme-linked reagent.
Consider `O=C(CN1CCCCC1)N1CCc2c(ncnc2NCC23CC4CC(CC(C4)C2)C3)C1` [Compound 266], for which the inhibition at 0.3 µM is 0 to 25%.

Staying with this test, now noted: P2X7; 0.1 μM compound (symbols + to ++++); read-out: IL-1β % inhib @ 0.1 μM.
Take `O=C(c1cccnc1)N1CCc2c(ncnc2NCC23CC4CC(CC(F)(C4)C2)C3)C1` [Compound 322]: the inhibition at 0.1 µM is 25 to 50%.
Consider `Fc1ccc(CN2CCc3c(ncnc3NCC34CC5CC(CC(F)(C5)C3)C4)C2)c(F)c1` [Compound 323], for which the inhibition at 0.1 µM lay in the range of 50 to 75%.
As for `O=C(OCc1ccc(C(F)(F)F)cc1)N1CCc2c(ncnc2NCC23CC4CC(CC(C4)C2)C3)C1` [Compound 324], the inhibition at 0.1 µM was in the range of 50 to 75%.
Same read-out and setting: as for `O=C(OCc1ccc(F)cc1F)N1CCc2c(ncnc2NCC23CC4CC(CC(C4)C2)C3)C1` [Compound 325], the figure is more than 75%; as for `OC12CC3CC(C1)CC(CNc1ncnc4c1CCN(Cc1ccccc1)C4)(C3)C2` [Compound 326, 3-[(7-Benzyl-5,6,7,8-tetrahydro-pyrido[3,4-d]pyrimidin-4-ylamino)-methyl]-adamantan-1-ol], more than 75%; as for `O=C(OCc1ccc(F)cc1)N1CCc2c(ncnc2NCC23CC4CC(CC(C4)C2)C3)C1` [Compound 327], 50 to 75%.
On to `O=C(OCc1cccnc1)N1CCc2c(ncnc2NCC23CC4CC(CC(C4)C2)C3)C1` [Compound 328], for which the inhibition at 0.1 µM was 50 to 75%.
The same measure, in the same setting: in the case of `CS(=O)(=O)c1ccc(COC(=O)N2CCc3c(ncnc3NCC34CC5CC(CC(C5)C3)C4)C2)cc1` [Compound 329] it was 50 to 75%; in that of `Cc1cc(COC(=O)N2CCc3c(ncnc3NCC34CC5CC(CC(C5)C3)C4)C2)no1` [Compound 330], 0 to 25%.
`O=C(OCc1cscn1)N1CCc2c(ncnc2NCC23CC4CC(CC(C4)C2)C3)C1` [Compound 331]: the inhibition at 0.1 µM lay within 0 to 25%.
For the molecule `FC12CC3CC(C1)CC(CNc1ncnc4c1CCN(Cc1ccc5c(c1)OCCO5)C4)(C3)C2` [Compound 332], the inhibition at 0.1 µM is 0 to 25%.
The same measure, in the same setting: as for `N#Cc1cccc(C(=O)N2CCc3c(ncnc3NCC34CC5CC(CC(F)(C5)C3)C4)C2)c1` [Compound 333], the figure is 25 to 50%.

The test is the same for the next values; noted with them: P2X7; 0.3 μM compound (symbols * to ****); read-out: IL-1β % inhib @ 0.3 μM.
For `O=C(CNC1CCN(Cc2ccccc2)CC1)N1CCc2c(ncnc2NCC23CC4CC(CC(C4)C2)C3)C1` [Compound 261], the inhibition at 0.3 µM fell in the range of 25 to 50%.
On to `O=C(CN1CCC(Cc2ccccc2)CC1)N1CCc2c(ncnc2NCC23CC4CC(CC(C4)C2)C3)C1` [Compound 264], for which the inhibition at 0.3 µM lay in the range of 25 to 50%.
With `O=C(CN1CCN(CC(=O)N2CCc3c(ncnc3NCC34CC5CC(CC(C5)C3)C4)C2)CC1)N1CCOCC1` [Compound 267], the inhibition at 0.3 µM lay in the range of 0 to 25%.
Same read-out and setting: in the case of `CCN(CC(=O)N1CCc2c(ncnc2NCC2C3CC4CC(C3)CC2C4)C1)Cc1ccncc1` (stereo not drawn) [Compound 268] it was 50 to 75%; in that of `CN(CC(=O)N1CCc2c(ncnc2NCC2C3CC4CC(C3)CC2C4)C1)C1CCCCC1` (stereo not drawn) [Compound 269], 50 to 75%; in that of `O=C(CN1CCN(Cc2ccccc2)CC1)N1CCc2c(ncnc2NCC2C3CC4CC(C3)CC2C4)C1` (stereo not drawn) [Compound 271], 0 to 25%.
On the same count and under the same terms, as for `O=C(CN1CCOCC1)N1CCc2c(ncnc2NCC2C3CC4CC(C3)CC2C4)C1` (stereo not drawn) [Compound 272], the figure is 0 to 25%; as for `O=C(CN1CCc2ccccc2C1)N1CCc2c(ncnc2NCC2C3CC4CC(C3)CC2C4)C1` (stereo not drawn) [Compound 274], 25 to 50%.
Take `O=C(CN1CCCCCC1)N1CCc2c(ncnc2NCC2C3CC4CC(C3)CC2C4)C1` (stereo not drawn) [Compound 275]: the inhibition at 0.3 µM was 0 to 25%.
For `CN(C)CCCN(C)CC(=O)N1CCc2c(ncnc2NCC2C3CC4CC(C3)CC2C4)C1` (stereo not drawn) [Compound 276], the inhibition at 0.3 µM lay within 0 to 25%.
For `CN(CCC#N)CC(=O)N1CCc2c(ncnc2NCC2C3CC4CC(C3)CC2C4)C1` (stereo not drawn) [Compound 277], the inhibition at 0.3 µM lay in the range of 0 to 25%.
In the case of `CCN1CCN(CC(=O)N2CCc3c(ncnc3NCC3C4CC5CC(C4)CC3C5)C2)CC1` (stereo not drawn) [Compound 278], the inhibition at 0.3 µM lay within 25 to 50%.
As to `CN(CCc1ccccn1)CC(=O)N1CCc2c(ncnc2NCC2C3CC4CC(C3)CC2C4)C1` (stereo not drawn) [Compound 279], the inhibition at 0.3 µM lay within 50 to 75%.
As for `CCN(C)CC(=O)N1CCc2c(ncnc2NCC2C3CC4CC(C3)CC2C4)C1` (stereo not drawn) [Compound 282], the inhibition at 0.3 µM fell in the range of 0 to 25%.
Turning to `O=C(CN1CCC1)N1CCc2c(ncnc2NCC2C3CC4CC(C3)CC2C4)C1` (stereo not drawn) [Compound 283], the inhibition at 0.3 µM lay within 0 to 25%.
Turning to `CN(CCc1ccccc1)CC(=O)N1CCc2c(ncnc2NCC2C3CC4CC(C3)CC2C4)C1` (stereo not drawn) [Compound 284], the inhibition at 0.3 µM was more than 75%.
Consider `CC(C)N1CCN(CC(=O)N2CCc3c(ncnc3NCC3C4CC5CC(C4)CC3C5)C2)CC1` (stereo not drawn) [Compound 285], for which the inhibition at 0.3 µM is 0 to 25%.
`CCCCN(C)CC(=O)N1CCc2c(ncnc2NCC2C3CC4CC(C3)CC2C4)C1` (stereo not drawn) [Compound 288]: the inhibition at 0.3 µM was in the range of 50 to 75%.
With `CN1CCC(NCC(=O)N2CCc3c(ncnc3NCC3C4CC5CC(C4)CC3C5)C2)CC1` (stereo not drawn) [Compound 289], the inhibition at 0.3 µM was in the range of 0 to 25%.
Consider `CC1CCN(CC(=O)N2CCc3c(ncnc3NCC3C4CC5CC(C4)CC3C5)C2)CC1` (stereo not drawn) [Compound 292], for which the inhibition at 0.3 µM is 25 to 50%.
With `O=C(CN1CCC(c2ccccc2)CC1)N1CCc2c(ncnc2NCC2C3CC4CC(C3)CC2C4)C1` (stereo not drawn) [Compound 294], the inhibition at 0.3 µM was 0 to 25%.
In the case of `CN(CC(=O)N1CCc2c(ncnc2NCC2C3CC4CC(C3)CC2C4)C1)Cc1ccco1` (stereo not drawn) [Compound 295], the inhibition at 0.3 µM is 0 to 25%.
On to `COc1ccc(CN(C)CC(=O)N2CCc3c(ncnc3NCC3C4CC5CC(C4)CC3C5)C2)cc1OC` (stereo not drawn) [Compound 296], for which the inhibition at 0.3 µM was 0 to 25%.
Take `COc1ccc(CCN(C)CC(=O)N2CCc3c(ncnc3NCC3C4CC5CC(C4)CC3C5)C2)cc1OC` (stereo not drawn) [Compound 297]: the inhibition at 0.3 µM was 0 to 25%.
`O=C(CN1CCC(N2CCOCC2)CC1)N1CCc2c(ncnc2NCC2C3CC4CC(C3)CC2C4)C1` (stereo not drawn) [Compound 299]: the inhibition at 0.3 µM lay within 25 to 50%.
For `O=C(CN1CCC(C(F)(F)F)CC1)N1CCc2c(ncnc2NCC2C3CC4CC(C3)CC2C4)C1` (stereo not drawn) [Compound 300], the inhibition at 0.3 µM was in the range of 0 to 25%.
As to `O=C(CN1CCN(c2ncccn2)CC1)N1CCc2c(ncnc2NCC2C3CC4CC(C3)CC2C4)C1` (stereo not drawn) [Compound 301], the inhibition at 0.3 µM fell in the range of 0 to 25%.
For `O=C(CN1CCN(c2ncncn2)CC1)N1CCc2c(ncnc2NCC2C3CC4CC(C3)CC2C4)C1` (stereo not drawn) [Compound 302], the inhibition at 0.3 µM lay in the range of 25 to 50%.
Still for that read-out and setting: in the case of `O=C(CN1CCN(CCn2cccc2)CC1)N1CCc2c(ncnc2NCC2C3CC4CC(C3)CC2C4)C1` (stereo not drawn) [Compound 303] it was 25 to 50%.
Still for that read-out and setting: as for `COCCN(C)CC(=O)N1CCc2c(ncnc2NCC2C3CC4CC(C3)CC2C4)C1` (stereo not drawn) [Compound 304], the figure is 25 to 50%.
In the case of `CN(CC(=O)N1CCc2c(ncnc2NCC2C3CC4CC(C3)CC2C4)C1)Cc1ccc(Cl)cc1` (stereo not drawn) [Compound 306], the inhibition at 0.3 µM lay in the range of 25 to 50%.
`COc1cccc(CN(C)CC(=O)N2CCc3c(ncnc3NCC3C4CC5CC(C4)CC3C5)C2)c1` (stereo not drawn) [Compound 308]: the inhibition at 0.3 µM is 0 to 25%.
In the case of `CCc1ccc(CN(C)CC(=O)N2CCc3c(ncnc3NCC3C4CC5CC(C4)CC3C5)C2)cc1` (stereo not drawn) [Compound 309], the inhibition at 0.3 µM is 25 to 50%.
Consider `O=C(CN1CCC(F)(F)CC1)N1CCc2c(ncnc2NCC2C3CC4CC(C3)CC2C4)C1` (stereo not drawn) [Compound 310], for which the inhibition at 0.3 µM is 0 to 25%.
Take `CN(CC(=O)N1CCc2c(ncnc2NCC2C3CC4CC(C3)CC2C4)C1)Cc1cccc(Cl)c1` (stereo not drawn) [Compound 311]: the inhibition at 0.3 µM lay within 25 to 50%.
As for `CN(CC(=O)N1CCc2c(ncnc2NCC2C3CC4CC(C3)CC2C4)C1)Cc1ccc(F)cc1` (stereo not drawn) [Compound 312], the inhibition at 0.3 µM was 0 to 25%.
On the same count and under the same terms, as for `CC(C)N(C)CC(=O)N1CCc2c(ncnc2NCC2C3CC4CC(C3)CC2C4)C1` (stereo not drawn) [Compound 313], the figure is 0 to 25%; as for `CN1CCC(N(C)CC(=O)N2CCc3c(ncnc3NCC3C4CC5CC(C4)CC3C5)C2)C1` (stereo not drawn) [Compound 314], 0 to 25%.
In the case of `C[C@@H](c1ccccc1)N(C)CC(=O)N1CCc2c(ncnc2NCC2C3CC4CC(C3)CC2C4)C1` (stereo partly drawn) [Compound 315], the inhibition at 0.3 µM was more than 75%.
For the molecule `COc1ccc(CN(C)CC(=O)N2CCc3c(ncnc3NCC3C4CC5CC(C4)CC3C5)C2)cc1` (stereo not drawn) [Compound 316], the inhibition at 0.3 µM lay in the range of 25 to 50%.
Still for that read-out and setting: as for `CN(CC(=O)N1CCc2c(ncnc2NCC2C3CC4CC(C3)CC2C4)C1)Cc1ccc(C(F)(F)F)cc1` (stereo not drawn) [Compound 317], the figure is 25 to 50%; as for `Cc1ccc(CN(C)CC(=O)N2CCc3c(ncnc3NCC3C4CC5CC(C4)CC3C5)C2)cc1` (stereo not drawn) [Compound 318], 25 to 50%; as for `CN(CC(=O)N1CCc2c(ncnc2NCC2C3CC4CC(C3)CC2C4)C1)Cc1ccncc1` (stereo not drawn) [Compound 319], 25 to 50%.
The same measure, in the same setting: as for `CN(CC(=O)N1CCc2c(ncnc2NCC2C3CC4CC(C3)CC2C4)C1)Cc1cccnc1` (stereo not drawn) [Compound 320], the figure is 25 to 50%.

(Values after patent US20100022531A1, “NOVEL COMPOUNDS AS P2X7 MODULATORS AND USES THEREOF” (RENOVIS, INC., priority 2005, published 2010).)
